The values below are quoted from earlier work in US20060034895A1, “Supplement food for low blood glucose recovery” (priority 2003, published 2006).

For `O=C[C@H](O)[C@@H](O)[C@H](O)[C@H](O)CO` [D-glucose], the solubility in alcohol result (alcohol) is given as “cannot melt into an alcohol easily”. Moreover, the solubility in ether result (ether) is recorded as “insoluble to ether”. Besides, the solubility in water entry (water) is given as “easy to melt into water”.
